In test [1] the target is LIM domain kinase 1 (Homo sapiens) (UniProt P53667). Put plainly: Inhibition of human recombinant LIMK1 at 40 nM in presence of ATP by radiometric assay relative to control.
Test [2] has as its target T1, Ephrin type-A receptor 1 (Homo sapiens) (UniProt P21709).
T1 sequence (whole entry): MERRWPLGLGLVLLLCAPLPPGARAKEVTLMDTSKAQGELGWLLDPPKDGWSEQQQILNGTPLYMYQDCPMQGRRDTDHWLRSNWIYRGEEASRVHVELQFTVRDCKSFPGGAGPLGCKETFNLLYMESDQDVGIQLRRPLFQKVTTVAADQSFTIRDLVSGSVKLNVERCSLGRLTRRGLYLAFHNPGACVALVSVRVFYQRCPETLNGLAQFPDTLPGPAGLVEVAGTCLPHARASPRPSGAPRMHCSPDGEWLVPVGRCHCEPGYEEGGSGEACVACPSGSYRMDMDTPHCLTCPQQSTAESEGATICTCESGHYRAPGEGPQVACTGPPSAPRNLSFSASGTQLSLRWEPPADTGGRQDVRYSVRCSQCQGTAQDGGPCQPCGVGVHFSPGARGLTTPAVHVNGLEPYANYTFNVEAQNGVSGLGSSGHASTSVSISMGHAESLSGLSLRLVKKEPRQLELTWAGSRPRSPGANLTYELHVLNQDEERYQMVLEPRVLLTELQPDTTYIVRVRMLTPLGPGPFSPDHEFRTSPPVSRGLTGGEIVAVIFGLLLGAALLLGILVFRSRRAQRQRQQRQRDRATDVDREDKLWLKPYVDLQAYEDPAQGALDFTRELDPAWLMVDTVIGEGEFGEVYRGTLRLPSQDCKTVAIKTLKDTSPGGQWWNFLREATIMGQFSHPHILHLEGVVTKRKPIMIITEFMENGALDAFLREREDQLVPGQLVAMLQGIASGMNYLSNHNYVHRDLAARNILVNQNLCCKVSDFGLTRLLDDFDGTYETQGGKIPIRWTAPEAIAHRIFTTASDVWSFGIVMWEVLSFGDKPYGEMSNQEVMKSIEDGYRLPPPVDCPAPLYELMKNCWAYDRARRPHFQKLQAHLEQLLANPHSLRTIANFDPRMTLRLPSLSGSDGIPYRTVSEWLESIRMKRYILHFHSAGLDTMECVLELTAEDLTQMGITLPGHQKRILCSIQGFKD
The test can be described thus: Inhibition of human recombinant EphA1 at 40 nM related to control ULK1.

Test [3] deals with Leukocyte tyrosine kinase receptor (Homo sapiens) (UniProt P29376). Put plainly: Inhibition of human recombinant LTK at 500 nM in presence of ATP by radiometric assay relative to control.
Chain of Leukocyte tyrosine kinase receptor (Homo sapiens) (P29376 whole entry): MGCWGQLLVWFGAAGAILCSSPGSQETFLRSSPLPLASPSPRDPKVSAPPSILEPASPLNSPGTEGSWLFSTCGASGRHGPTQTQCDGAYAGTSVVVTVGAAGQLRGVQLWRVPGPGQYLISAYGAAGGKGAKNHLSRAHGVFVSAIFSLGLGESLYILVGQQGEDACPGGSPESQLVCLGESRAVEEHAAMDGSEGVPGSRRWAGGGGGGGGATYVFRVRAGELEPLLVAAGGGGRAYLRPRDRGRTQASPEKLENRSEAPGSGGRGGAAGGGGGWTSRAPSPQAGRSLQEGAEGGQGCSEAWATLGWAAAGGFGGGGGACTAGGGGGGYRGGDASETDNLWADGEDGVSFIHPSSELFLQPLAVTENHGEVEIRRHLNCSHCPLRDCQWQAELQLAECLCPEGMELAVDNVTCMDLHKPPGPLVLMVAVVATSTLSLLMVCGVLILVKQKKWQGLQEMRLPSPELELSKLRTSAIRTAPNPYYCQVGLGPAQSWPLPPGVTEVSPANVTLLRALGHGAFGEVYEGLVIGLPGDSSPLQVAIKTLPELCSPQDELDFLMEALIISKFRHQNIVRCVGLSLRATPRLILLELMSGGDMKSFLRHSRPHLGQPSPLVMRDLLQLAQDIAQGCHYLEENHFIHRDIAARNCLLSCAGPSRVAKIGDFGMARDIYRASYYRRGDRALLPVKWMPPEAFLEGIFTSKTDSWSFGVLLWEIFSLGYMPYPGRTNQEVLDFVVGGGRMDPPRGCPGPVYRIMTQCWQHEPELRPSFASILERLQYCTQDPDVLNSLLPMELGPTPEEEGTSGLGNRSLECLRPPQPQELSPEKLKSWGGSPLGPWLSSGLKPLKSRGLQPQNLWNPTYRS
The target of test [4] is Leucine-rich repeat serine/threonine-protein kinase 2 (Homo sapiens) (UniProt Q5S007). Put plainly: Inhibition of human recombinant LRRK2 at 500 nM related to control ULK1.
Chain of Leucine-rich repeat serine/threonine-protein kinase 2 (Homo sapiens) (Q5S007 whole entry): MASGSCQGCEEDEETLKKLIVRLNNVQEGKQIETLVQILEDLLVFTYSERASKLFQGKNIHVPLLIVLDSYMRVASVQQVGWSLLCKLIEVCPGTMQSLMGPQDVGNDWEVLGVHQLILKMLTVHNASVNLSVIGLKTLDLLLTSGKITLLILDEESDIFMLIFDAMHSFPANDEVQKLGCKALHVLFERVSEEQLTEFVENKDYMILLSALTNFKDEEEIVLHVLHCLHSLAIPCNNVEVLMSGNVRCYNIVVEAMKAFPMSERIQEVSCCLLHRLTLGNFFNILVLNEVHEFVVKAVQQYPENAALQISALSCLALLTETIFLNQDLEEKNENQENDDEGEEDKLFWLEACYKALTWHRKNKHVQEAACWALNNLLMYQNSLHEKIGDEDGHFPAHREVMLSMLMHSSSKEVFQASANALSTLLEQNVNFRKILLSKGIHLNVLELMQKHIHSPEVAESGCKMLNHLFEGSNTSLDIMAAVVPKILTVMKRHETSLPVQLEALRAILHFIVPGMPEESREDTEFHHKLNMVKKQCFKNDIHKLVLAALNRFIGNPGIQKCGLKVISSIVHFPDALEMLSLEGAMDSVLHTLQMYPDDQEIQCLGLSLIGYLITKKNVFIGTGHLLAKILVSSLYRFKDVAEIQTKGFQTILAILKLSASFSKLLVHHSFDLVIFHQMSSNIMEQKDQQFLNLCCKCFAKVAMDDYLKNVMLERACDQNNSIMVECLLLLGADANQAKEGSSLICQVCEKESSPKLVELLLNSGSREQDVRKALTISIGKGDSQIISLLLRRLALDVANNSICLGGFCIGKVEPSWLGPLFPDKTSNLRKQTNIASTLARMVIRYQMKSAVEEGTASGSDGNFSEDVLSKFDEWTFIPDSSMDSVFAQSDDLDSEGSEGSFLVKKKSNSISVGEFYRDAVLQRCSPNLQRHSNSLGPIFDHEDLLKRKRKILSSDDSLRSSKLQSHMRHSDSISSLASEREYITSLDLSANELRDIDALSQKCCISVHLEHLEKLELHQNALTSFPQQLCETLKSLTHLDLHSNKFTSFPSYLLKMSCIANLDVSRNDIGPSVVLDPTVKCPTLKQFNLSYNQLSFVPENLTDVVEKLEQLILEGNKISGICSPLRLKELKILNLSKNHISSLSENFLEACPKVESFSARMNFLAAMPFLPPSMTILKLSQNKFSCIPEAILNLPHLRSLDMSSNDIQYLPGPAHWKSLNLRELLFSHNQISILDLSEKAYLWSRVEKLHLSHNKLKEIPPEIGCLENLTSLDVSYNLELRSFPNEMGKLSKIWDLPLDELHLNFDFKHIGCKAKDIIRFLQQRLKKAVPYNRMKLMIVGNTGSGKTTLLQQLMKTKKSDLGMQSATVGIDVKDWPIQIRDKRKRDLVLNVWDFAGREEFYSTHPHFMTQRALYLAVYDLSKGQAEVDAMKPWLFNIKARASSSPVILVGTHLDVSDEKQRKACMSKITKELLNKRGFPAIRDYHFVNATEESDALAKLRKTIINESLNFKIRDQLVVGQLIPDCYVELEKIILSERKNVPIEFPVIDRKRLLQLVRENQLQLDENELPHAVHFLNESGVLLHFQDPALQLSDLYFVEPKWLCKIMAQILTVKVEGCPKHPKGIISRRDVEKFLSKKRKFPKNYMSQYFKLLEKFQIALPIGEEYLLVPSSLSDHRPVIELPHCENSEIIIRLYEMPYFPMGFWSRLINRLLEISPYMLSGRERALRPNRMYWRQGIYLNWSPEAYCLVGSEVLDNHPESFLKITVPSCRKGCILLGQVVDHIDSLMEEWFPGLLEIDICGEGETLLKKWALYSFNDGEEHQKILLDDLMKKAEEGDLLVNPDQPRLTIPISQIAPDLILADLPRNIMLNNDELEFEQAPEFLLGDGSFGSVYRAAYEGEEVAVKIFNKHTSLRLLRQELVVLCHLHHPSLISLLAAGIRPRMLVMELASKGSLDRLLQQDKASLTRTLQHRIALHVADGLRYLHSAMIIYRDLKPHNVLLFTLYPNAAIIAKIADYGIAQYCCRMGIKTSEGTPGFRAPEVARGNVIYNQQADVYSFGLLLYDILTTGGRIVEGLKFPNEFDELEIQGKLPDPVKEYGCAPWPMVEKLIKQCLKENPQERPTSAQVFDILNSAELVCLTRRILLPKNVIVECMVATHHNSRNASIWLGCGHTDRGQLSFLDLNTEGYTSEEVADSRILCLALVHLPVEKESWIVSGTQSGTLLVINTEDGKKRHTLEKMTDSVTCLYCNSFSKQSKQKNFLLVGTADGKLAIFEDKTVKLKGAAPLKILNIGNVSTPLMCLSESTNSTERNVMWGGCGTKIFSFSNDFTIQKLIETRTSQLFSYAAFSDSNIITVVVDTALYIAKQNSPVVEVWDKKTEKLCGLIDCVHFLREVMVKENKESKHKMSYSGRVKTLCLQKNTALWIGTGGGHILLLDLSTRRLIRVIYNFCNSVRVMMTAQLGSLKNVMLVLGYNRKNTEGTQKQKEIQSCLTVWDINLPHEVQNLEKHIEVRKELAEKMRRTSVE
Test [5] concerns the target T2, Dual specificity protein kinase TTK (Homo sapiens) (UniProt P33981).
T2 sequence (whole entry): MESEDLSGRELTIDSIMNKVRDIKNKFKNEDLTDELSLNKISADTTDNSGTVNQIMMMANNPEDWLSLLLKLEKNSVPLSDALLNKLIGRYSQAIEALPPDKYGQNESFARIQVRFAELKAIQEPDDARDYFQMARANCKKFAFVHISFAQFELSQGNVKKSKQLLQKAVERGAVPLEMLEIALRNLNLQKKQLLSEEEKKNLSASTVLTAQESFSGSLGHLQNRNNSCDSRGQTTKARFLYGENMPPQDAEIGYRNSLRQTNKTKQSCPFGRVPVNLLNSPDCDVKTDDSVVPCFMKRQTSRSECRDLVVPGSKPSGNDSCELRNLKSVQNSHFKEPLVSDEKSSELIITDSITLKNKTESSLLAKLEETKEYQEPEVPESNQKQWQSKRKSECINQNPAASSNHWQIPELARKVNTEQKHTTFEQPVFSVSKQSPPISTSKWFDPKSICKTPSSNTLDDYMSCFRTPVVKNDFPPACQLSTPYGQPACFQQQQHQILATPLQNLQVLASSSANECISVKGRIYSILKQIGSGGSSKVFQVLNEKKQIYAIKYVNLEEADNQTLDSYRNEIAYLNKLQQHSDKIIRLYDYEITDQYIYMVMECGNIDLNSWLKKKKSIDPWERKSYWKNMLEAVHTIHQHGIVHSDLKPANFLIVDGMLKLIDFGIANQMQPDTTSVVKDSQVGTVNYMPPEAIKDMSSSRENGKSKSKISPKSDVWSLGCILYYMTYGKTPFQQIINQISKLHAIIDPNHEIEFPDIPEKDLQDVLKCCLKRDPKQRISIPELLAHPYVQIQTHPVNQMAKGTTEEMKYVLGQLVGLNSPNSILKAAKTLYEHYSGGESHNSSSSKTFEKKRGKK
The test can be described thus: Inhibition of human recombinant TTK at 500 nM related to control ULK1.

Test [6] addresses Tyrosine-protein kinase SYK (Homo sapiens) (UniProt P43405). The test can be described thus: Inhibition of human recombinant SYK at 15 nM in presence of ATP by radiometric assay relative to control.
The target in test [7] is T3, Serine/threonine-protein kinase TAO3 (Homo sapiens) (UniProt Q9H2K8).
T3 sequence (whole entry): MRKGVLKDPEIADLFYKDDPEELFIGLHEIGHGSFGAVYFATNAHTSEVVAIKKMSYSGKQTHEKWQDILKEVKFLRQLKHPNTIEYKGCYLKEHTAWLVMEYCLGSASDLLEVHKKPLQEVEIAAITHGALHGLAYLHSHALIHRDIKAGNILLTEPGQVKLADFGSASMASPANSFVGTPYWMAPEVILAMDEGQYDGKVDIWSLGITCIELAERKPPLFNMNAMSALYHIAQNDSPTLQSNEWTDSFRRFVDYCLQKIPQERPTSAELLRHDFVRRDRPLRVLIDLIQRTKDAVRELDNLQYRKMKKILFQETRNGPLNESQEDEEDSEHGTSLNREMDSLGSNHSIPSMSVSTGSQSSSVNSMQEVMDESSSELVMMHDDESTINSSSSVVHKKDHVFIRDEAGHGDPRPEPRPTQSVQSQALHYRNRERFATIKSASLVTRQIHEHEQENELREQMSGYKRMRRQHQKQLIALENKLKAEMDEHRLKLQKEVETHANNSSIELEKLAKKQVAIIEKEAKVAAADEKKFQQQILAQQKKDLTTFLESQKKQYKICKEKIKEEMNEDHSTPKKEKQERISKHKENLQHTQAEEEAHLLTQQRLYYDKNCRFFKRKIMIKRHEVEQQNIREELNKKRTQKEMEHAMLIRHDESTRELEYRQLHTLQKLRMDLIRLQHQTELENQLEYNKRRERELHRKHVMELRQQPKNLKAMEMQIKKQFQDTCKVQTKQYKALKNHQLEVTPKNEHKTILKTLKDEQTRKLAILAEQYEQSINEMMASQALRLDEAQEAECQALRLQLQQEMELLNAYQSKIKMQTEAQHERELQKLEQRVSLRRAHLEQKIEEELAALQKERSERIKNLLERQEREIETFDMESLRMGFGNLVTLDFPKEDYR
The test can be described thus: Inhibition of human recombinant TAO3 at 15 nM related to control ULK1.

Chain of LIM domain kinase 1 (Homo sapiens) (P53667 whole entry, looked up, the tested form may be a part): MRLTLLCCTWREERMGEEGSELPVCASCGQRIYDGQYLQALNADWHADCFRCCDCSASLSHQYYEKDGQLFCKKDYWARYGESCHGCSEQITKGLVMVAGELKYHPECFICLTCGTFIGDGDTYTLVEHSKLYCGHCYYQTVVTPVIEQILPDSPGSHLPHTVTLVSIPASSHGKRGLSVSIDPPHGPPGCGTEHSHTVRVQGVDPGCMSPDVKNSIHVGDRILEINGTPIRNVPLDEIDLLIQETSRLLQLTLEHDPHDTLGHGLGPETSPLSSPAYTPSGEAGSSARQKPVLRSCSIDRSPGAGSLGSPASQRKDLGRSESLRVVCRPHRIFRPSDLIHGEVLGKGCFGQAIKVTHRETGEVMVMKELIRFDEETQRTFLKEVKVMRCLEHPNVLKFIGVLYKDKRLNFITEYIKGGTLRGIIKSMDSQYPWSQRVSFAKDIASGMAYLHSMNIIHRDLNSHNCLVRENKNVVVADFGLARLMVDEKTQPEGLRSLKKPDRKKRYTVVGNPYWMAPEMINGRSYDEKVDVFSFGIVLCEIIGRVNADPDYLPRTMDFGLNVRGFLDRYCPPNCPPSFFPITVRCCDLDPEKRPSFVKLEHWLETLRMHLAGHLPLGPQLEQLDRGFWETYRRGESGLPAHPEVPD

As a reminder, the inhibition is the share of the control response that was lost under treatment. As for `O=C(N[C@@H](C1CC1)C(F)(F)F)c1cc(-c2cnn3cc(-c4ccc(F)cc4)cnc23)cs1`, the inhibition in test [1] turned out to be 15%. The fold change (FC) in test [2] worked out at 0.
Turning to `CNC(=O)c1ccccc1Oc1nc(Nc2cc(OC)c(OC)c(OC)c2)ncc1Br`, the inhibition in test [3] was determined as 3%. Moreover, the fold change (FC) in test [4] amounted to 0.47; in test [5], 0.15.
Take `CC(C)[C@H](NC(=O)c1cc(-c2cnn3cc(-c4ccc(OCCN5CCCCC5)cc4)cnc23)cs1)C(F)(F)F`: the inhibition in test [6] turned out to be 0%. Moreover, the fold change (FC) in test [7] turned out to be 0.01.

Source of the values: ChEMBL document CHEMBL5653631, “A Potent and Selective ULK1 Inhibitor Suppresses Autophagy and Sensitizes Cancer Cells to Nutrient Stress” (iScience, 2018).
